Results on four molecules are retold here after patent US20260306460A1, “COMPOSITION FOR REMOVING AND INHIBITING SENESCENT CELLS, AND USES THEREOF” (LIFECEUTIX CO., LTD., priority 2023, published 2026).

Common to all, as to assay type: in vivo, mouse
In assay [1] the test system is naturally aged C57BL6J mice. As to the kind of experiment: Geriatric depression and anxiety in aged mice, Example 21-8. As to conditions: for amount of SASP, p16, SA-β-gal, lipofuscin / symptoms of geriatric depression and anxiety: aged mice; for amount of SASP in serum and tissues: mice of Examples 21-5 and 21-6. An excerpt: The amount of senescent-associated secretory factor (SASP) in serum and tissues collected from mice of Examples 21-5 and 21-6 was reduced by treatment with LX-5701, LX-2101, or LX-2102. It was confirmed that removing senescent cells, which increase with aging in mice, and effectively reducing the amount of senescent-associated secretory factor (SASP) can improve symptoms of geriatric depression and anxiety.

For assay [2], the system named is naturally aged C57BL6J mice. As to the kind of experiment: Joint aging (arthritis marker mRNA) in naturally aged mice, Example 21-12, Table 27. The protocol: (§1) 22-month-old female C57BL6J mice (KRIBB Laboratory Animal Resource Center) were acclimated to the experimental environment for one week, after which the aged mice were randomly assigned to experimental and control groups. Eight-week-old, non-aged mice served as controls. LX-403 was mixed in a 10% ethanol solution of PEG400 and administered orally at a concentration of 25 mg/kg daily for 21 days, or administered to the skin, joints, or eyes at a concentration of 1 μM. LX-1801 was mixed in distilled water with 4% DMSO, 30% PEG300, and 5% Tween80 and administered to the skin, joints, or eyes at a concentration of 0.4 μM daily for 21 days. LX-2001 was mixed in PBS and administered to the skin, joints, or eyes at a concentration of […] daily for 21 days. LX-2002 was mixed in distilled water with 4% DMSO, 30% PEG300, and 5% Tween80 and administered to the skin, joints, or eyes at a concentration of 2 μM daily for 21 days. […] LX-2005 was mixed in distilled water with 4% DMSO, 30% PEG300, and 5% Tween80 and administered to the skin, joints, or eyes at a concentration of 90 μM daily for 21 days. LX-2007 was mixed in distilled water with 4% DMSO, 30% PEG300, and 5% Tween80 and administered to the skin, joints, or eyes at a concentration of 90 μM daily for 21 days. […] LX-3002 was mixed in distilled water with 4% DMSO, 30% PEG300, and 5% Tween80 and administered orally at a concentration of 10 mg/kg daily for 21 days. […] LX-5411 was mixed in 5% PBS and administered orally at a concentration of 10 mg/kg daily for 21 days or administered to the skin, joints, or eyes at a concentration of 3 μM. LX-5701 was mixed in PBS and administered orally at a concentration of 360 mg/kg daily for 21 days. LX-6807 was mixed in saline and administered intraperitoneally at a concentration of 1 mg/kg daily for 21 days. LX-2101 or LX-2102 was mixed in PBS solution with 5% DMSO and administered intraperitoneally at a concentration of 20 mg/kg or 10 mg/kg, respectively, daily for 21 days. The control group received only the solution in the same volume. After the end of drug administration, the methods described in each example below were performed.
RNA was extracted from joint tissue as described in Example 7-2 of WO2023-085787 A1, and qRT-PCR was performed using the synthesized cDNA. […] To analyze joint pain due to joint aging, hotplate analysis was performed. Specifically, thermal pain thresholds were measured using a hot plate. After acclimating mice to a temperature of 30° C. for 10 minutes, the time required for hind paw licking or jumping responses to occur at 55° C. was measured. To prevent tissue damage, the response was measured for less than 30 seconds, and the average value was used from five measurements.

Assay [3] concerns naturally aged C57BL6J mice. Briefly: Frailty (open field, wire hanging, grip strength, muscle and fat tissue) in naturally aged mice, Example 21-7, Table 23. The note with it: for Fat Mass (g): inguinal and epididymal fat, untreated aged 0.82 (±0.19); for Muscle Mass (g): quadriceps and gastrocnemius, untreated aged 0.64 (±0.06); for Grip Sterenght Test Strength (%) / Open Field Test Time in Center (%) / Wire Hanging Test Time (%): untreated aged = 100%. The protocol:
as §1
To analyze frailty due to aging in mice, an activity test (open field test), an endurance test (wire hanging test), and a muscle strength and grip strength test (grip strength test) were performed using the same method as in Example 7-7 of WO2023-085787 A1. The table below quantitatively represents the results of activity, endurance, muscle strength, and grip strength, which are criteria for assessing frailty, under conditions in which aging was induced and the test compound was not administered or administered. The amount of each evaluation after aging was calculated as 100% and compared with the amount of each evaluation after treatment with the drug of the present invention.

Assay [4] relates to bleomycin-induced scleroderma C57BL6J mice. As to the kind of experiment: Bleomycin scleroderma in mice (p16, COL1A1 mRNA, dermal thickness), Example 24-2, Table 48. The note with it: daily for 21 days; for p16 mRNA: untreated 100 (±8.8); for Col1a1 mRNA: untreated 100 (±13.2); for Dermal Thickness: untreated 459 (±38.7). How it is done: Eight-week-old male C57BL6J mice (KRIBB Laboratory Animal Resource Center) were acclimated to the experimental environment for one week. Then, 100 μl of the anticancer drug bleomyxin (1 mg/ml) was administered subcutaneously every other day to induce scleroderma for more than three weeks. Mice with scleroderma were randomly assigned to experimental and control groups. LX-403 was mixed with a 10% ethanol solution of PEG400 and administered orally at a concentration of 25 mg/kg daily for 21 days or administered directly to the skin at a concentration of 1 μM. LX-1801 was mixed with a solution of 4% DMSO, 30% PEG300, and 5% Tween80 in distilled water and administered subcutaneously at a concentration of 0.4 μM daily for 21 days. LX-2001 was mixed in PBS and administered intradermally at a concentration of 2 μM daily for 21 days. LX-2002 was mixed in distilled water with 4% DMSO, 30% PEG300, and 5% Tween80 and administered intradermally at a concentration of 2 μM daily for 21 days. […] LX-2005 was mixed in distilled water with 4% DMSO, 30% PEG300, and 5% Tween80 and administered intradermally at a concentration of 90 μM daily for 21 days. LX-2007 was mixed in distilled water with 4% DMSO, 30% PEG300, and 5% Tween80 and administered intradermally at a concentration of 90 μM daily for 21 days. […] LX-3002 was mixed with distilled water with 4% DMSO, 30% PEG300, 5% tween80 and administered orally at 10 mg/kg daily for 21 days. […] LX-5411 was mixed with 5% PBS and administered orally at 10 mg/kg daily for 21 days or subcutaneously at 3 μM. LX-5701 was mixed with PBS and administered orally at 360 mg/kg daily for 21 days. LX-6807 was mixed in saline and administered intraperitoneally at a concentration of 1 mg/kg daily for 21 days. The control group was administered only the solution in the same volume. After the end of drug administration, mice were sacrificed in the same manner as in Example 7-2 of WO2023-085787 A1, RNA was extracted from skin tissue, and the synthesized cDNA was used to perform and analyze the mRNA amounts of p16 and collagen (COL1A1) by qRT-PCR (quantitative real-time PCR). In addition, to measure the degree of bleomycin-induced skin hardening, skin frozen sections were stained with H/E (Hematoxylin/Eosin), and the thickness of the dermis was observed under an optical microscope.

Take `CC1(C)CC[C@]2(NC(=O)C(C)(F)F)CC[C@]3(C)[C@H](C(=O)C=C4[C@@]5(C)C=C(C#N)C(=O)C(C)(C)[C@@H]5CC[C@]43C)[C@@H]2C1` [LX-2101, Omaveloxolone]: in assay [1], the “amount of SASP, p16, SA-β-gal, lipofuscin” value (from here on “amount of SASP, p16”) is listed as “reduced”; the “symptoms of geriatric depression and anxiety” value (“symptoms” for short) is listed as “improved”; the “amount of SASP in serum and tissues” value is “reduced”. For the same molecule, the “Col2a1 mRNA (fold)” value in assay [2] is reported as 1.9 (±0.2) fold. For the same molecule, in assay [3], the “Fat Mass (g)” value is 1.15 (±0.09) g, the “Muscle Mass (g)” value is reported as 0.72 (±0.05) g, the “Grip Sterenght Test Strength (%)” value is recorded as 121 (±4.1) % and the “Open Field Test Time in Center (%)” value is given as 145 (±10.2) %. Also, the “Wire Hanging Test Time (%)” value in assay [3] is recorded as 117 (±3.8) %.

Regarding `C#CC(=O)N1[C@@H](CCCC)Cc2cc(OC)ccc2[C@@H]1c1ccc(NC23CC4CC(CC(C4)C2)C3)cc1` [LX-5411], in assay [4], the “p16 mRNA” value is on record as 43.8 (±3.0) %, the “Col1a1 mRNA” value was 55.3 (±1.6) % and the “Dermal Thickness” value is listed as 376 (±47.1) μm. For the same molecule, in assay [1], the “amount of SASP, p16” value is recorded as “reduced”; the “symptoms” value is on record as “improved”. The “Col2a1 mRNA (fold)” value in assay [2] is 3.3 (±0.3) fold.

Regarding `O=C1C2CCN(CC2)C1CNC(=O)C(F)(F)F` (centres unmarked) [LX-5701], in assay [4], the “p16 mRNA” value was 64 (±9.4) %, the “Col1a1 mRNA” value is recorded as 59.7 (±17.3) % and the “Dermal Thickness” value was 358 (±21.4) μm. For the same molecule, in assay [1], the “amount of SASP, p16” value was “reduced”; the “symptoms” value is on record as “improved”; the “amount of SASP in serum and tissues” value is “reduced”. The “Col2a1 mRNA (fold)” value in assay [2] is 2.7 (±0.3) fold. Moreover, in assay [3], the “Fat Mass (g)” value is 0.88 (±0.1) g, the “Muscle Mass (g)” value is reported as 0.66 (±0.1) g, the “Grip Sterenght Test Strength (%)” value is 119 (±3.8) % and the “Open Field Test Time in Center (%)” value is reported as 259 (±38.6) %. For the same molecule, the “Wire Hanging Test Time (%)” value in assay [3] was 141 (±7.3) %.

As to `Cc1cccc([C@H](C)c2cnc[nH]2)c1C` [LX-6807, Dexmedetomidine], in assay [4], the “p16 mRNA” value is 64.7 (±3.5) %, the “Col1a1 mRNA” value was 37.6 (±2.5) % and the “Dermal Thickness” value is reported as 315 (±29.8) μm. Further, in assay [1], the “amount of SASP, p16” value is on record as “reduced”; the “symptoms” value was “improved”. The “Col2a1 mRNA (fold)” value in assay [2] is reported as 3.5 (±0.2) fold. Besides, in assay [3], the “Fat Mass (g)” value is recorded as 1.08 (±0.15) g, the “Muscle Mass (g)” value is listed as 0.74 (±0.04) g, the “Grip Sterenght Test Strength (%)” value is given as 128 (±6.2) % and the “Open Field Test Time in Center (%)” value is 269 (±13.3) %. The “Wire Hanging Test Time (%)” value in assay [3] was 156 (±16.4) %.
